Like-named read-outs stand apart in the source and are kept apart here.
Assays:
[1] = system: histidine-requiring Salmonella typhimurium TA100 and TA98 strains; conditions: cited from earlier work
[2] = molecular target: T1, amyloid β protein in the brain section of an Alzheimer disease patient (Homo sapiens, UniProt P05067); assay: Staining test on a brain section of an Alzheimer disease patient: amyloid β protein; assay type: binding
T1 construct: from tissue; host or cells: paraffin-embedded temporal lobe and hippocampus of Alzheimer disease patients
T1 sequence (P05067 672-713 limits assumed): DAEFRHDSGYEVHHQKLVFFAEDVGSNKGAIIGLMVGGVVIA
Source text: (§1) (1) Brain specimens at the temporal lobe and the hippocampus of patients to which a definitive diagnosis of Alzheimer disease had been given, and those of normal senile persons were used. The specimens were given by our coworker, Fukushimura Hospital, Longevity Medicine Institute, and we were given their consent of use of the specimens for our study purpose by the bereaved of the patients (Fukushimura Hospital Ethical Review Board Approval No. 20).
(§2) (2) The paraffin-embedded brain tissue was cut Into slices having a thickness of 6 μm or 8 μm, and extended and dried on a slide. The paraffin brain section was steeped for paraffin removal in xylene twice for 10 minutes, 100% ethanol twice for 5 minutes, 90% ethanol for 5 minutes and running water for 10 minutes in that order.
(§3) (3) For pretreatment prior to the staining treatment with a compound of the invention, the sections were steeped for autofluorescence removal with lipofuscin. First, the paraffin-removed sections were dipped in 0.25% KMnO4 solution for 20 minutes. These were washed with PBS, twice for 2 minutes, then dipped in 0.1% K2S2O5/oxalic acid solution for about 5 seconds, and then further washed with PBS, three times for 2 minutes.
(§4) (4) About 150 μl of a 100 μM solution of a compound of the invention dissolved in 50% ethanol was dropwise applied to the section and reacted for 10 minutes. After dipped five times in tap water, the section was entrapped with Fluor Save Reagent (Calbiochem), and analyzed through microscopy with a fluorescence microscope (Nikon, Eclipse 80i). The images were taken with a digital camera (Nikon Dxm 1200F or Photometrics' Cool SNAP ES).
(1) After paraffin removal, the sections were washed in distilled water, twice for 2 minutes. Then, using ImmunoPen, the tissue was marked with a surrounding line; about 150 μl of formic acid was dropwise applied to the section and statically left at room temperature for 5 minutes. The section was washed with tap water for 5 minutes, then dipped in cold PBS-Tween 20 for 2 minutes, and thereafter about 150 μl of 0.05% trypsin solution was dropwise applied to it and reacted at 37° C. for 15 minutes.
(2) In an ice bath, this was washed with cold PBS-Tween 20, twice for 5 minutes, and then 2 drops of blocking serum were applied to it and reacted at 37° C. for 30 minutes. Excess water was removed, and then about 150 μl of a specific antibody to amyloid β protein, 6F/3D (by DAKO, 1/50 dilution) was dropwise applied to it, and reacted at 37° C. for 1 hour.
(3) Further, this was washed with cold PBS-Tween 20, 5 times for 2 minutes, and then 2 drops of an anti-mouse IgG (H+L), goat, biotin-binding solution were applied to it and reacted at 37° C. for 1 hour. Then, this was washed with cold PBS-Tween 20, three times for 2 minutes, and 2 drops of an ABC solution (streptoavidin-biotin-peroxidase composite solution) were applied to it, and left statically as such for 30 minutes. Again this was washed with cold PBS-Tween 20, three times for 2 minutes, and then about 150 μl of a DAB solution (10 mg of DAB was dissolved in 20 ml of 0.05 mol/liter tris-HCl buffer, and just before use, 100 μl of 3% hydrogen peroxide water was added to it) was dropwise applied to it for sufficiently staining it. Then, this was washed with distilled water for 1 minute to stop the reaction, then entrapped and observed through microscopy.

[3] = system: neurofibrillary tangle in the brain section of an Alzheimer disease patient; assay: Staining test on a brain section of an Alzheimer disease patient: neurofibrillary tangle; assay type: binding, human; conditions: 100 μM solution in 50% ethanol, 10 minutes, paraffin brain section
Source text: as §1, §2, §3
as §4, with “ES). […]” for “ES).”

[4] = Acute Toxicity Test; assay type: in vivo; conditions: Crj:CD1 male mice, tail vein, observed for 7 days
Method: The compounds of the invention were tested for their acute toxicity through intravenous administration thereof to mice. Four Crj:CD1 male mice formed one test group, and some test groups of those mice were used (the mean body weight of the mice of each group was from 31 to 32 g). A test compound was dissolved in a mixture of 1 N HCl, polyethylene glycol-400 and distilled water, or dissolved in DMSO, and then diluted with distilled water. This was administered to each mouse via its tail vein.

[5] = Brain Permeability Test Through HPLC; assay type: in vivo; conditions: mice, 2 minutes after intravenous administration
Method: A compound of the invention was intravenously administered to mice, and tested for its in-vivo brain permeability in the mice.
(1) Slc:ICR mice (by Nippon SLC) (body weight, 30 to 40 g; n=3) were used.
(2) A test compound was dissolved in a mixture of 5% Tween 80-5% ethyl alcohol-5% 1 N HCl-physiological saline water, and injected into the test mouse via its tail vein. Two minutes after the administration, the blood was collected from the test mouse under ether anesthesia via its abdominal aorta using a heparin-steeped syringe, and the brain material was collected from it.
(3) After collected, the blood was centrifuged at 4° C. and 14,000 rpm for 10 minutes, and the supernatant was stored at −80° C. as plasma. After collected, the brain material (including the cerebellum) was stored at −80° C.
(4) 0.3 ml of acetonitrile was added to 0.1 ml of the plasma, then vortexed, and centrifuged at 4° C. and under 10,000 G for 5 minutes. After centrifuged, 0.2 ml of the resulting supernatant was transferred into Mini-Uniprep (Whatman), then 0.2 ml of 20 mM phosphate buffer was added to it and filtered. 0.2 ml of the resulting filtrate was analyzed through HPLC (Shiseido Nanospace SI-2; pump, 3001; UV-VIS detector, 3002; column thermostat, 3004; fluorescence detector, 3013).
(5) 2 ml of methanol was added to the brain, homogenized, and centrifuged at 4° C. and 3000 or 4000 rpm for 10 minutes. After centrifuged, 500 μl of the resulting supernatant was diluted 10-fold with 20 mM phosphate buffer. (i) 2 to 3 ml of acetonitrile, (ii) 2 to 5 ml of methanol and (iii) 4 to 6 ml of ultra-pure water were led through a cartridge for solid-phase extraction (J. T. Baker Speedisk) in that order, and the 10-fold diluted supernatant solution was led through it. Via an empty syringe, air was applied to the cartridge for solid-phase extraction, two or three times to remove water, and then this was eluted with about 500 μl of acetonitrile or methanol, and the eluate was diluted 2-fold with 20 mM phosphate buffer. 0.2 ml of the resulting solution was analyzed through HPLC.
(6) The test compound content in the plasma and in the brain was determined relative to the dose of the compound (% ID (injected dose)/g or ml).

[6] = system: histidine-requiring Salmonella typhimurium TA100 and TA98 strains; assay: Mutagenicity Test (reverse mutation test); assay type: cell-based; conditions: for Relative Activity in the presence of S9Mix / Relative Activity in the absence of S9Mix: reverse mutation test
Method: In view of their use, it is desirable that the compounds of the invention have no mutagenicity or have little mutagenicity to a level causing no problem. For investigating the gene mutagenesis of the compounds of the invention, herein carried out was a reverse mutation test with histidine-requiring Salmonella typhimurium TA100 and TA98 strains. Two tests were carried out. One is a test for dose determination test; and the other is for mutagenicity.
The test methods and the mutagenicity of the compounds of the invention are mentioned below. In the dose determination test, six doses of 0.160, 0.800, 4.00, 20.0, 100 and 500 μg/plate (common ratio 5) were tried.
As a result of the dose determination test, when the mutagenicity of the test compound was admitted, then the actual test for mutagenicity was carried out, using the dose capable of giving an accurate dose-reaction curve. When no mutagenicity of the test compound was admitted in the dose determination test and when the growth inhibition of the test cells was admitted therein, then the dose to present the growth inhibition was taken as the maximum dose; and when the growth inhibition was not admitted, then a dose of 5000 μg/plate was taken as the maximum dose. With that, the actual test for mutagenicity was carried out on the level of 6 doses (common ratio 2).
First, a test compound was dissolved or suspended in DMSO, then diluted in order to prepare test compound liquids having a varying concentration.
100 μl of a test compound liquid or a negative control (DMSO) solution was put into a sterilized test tube. Then, for the case in the absence of a metabolic activation system (−S9mix), 500 μl of 0.1 mol/liter sodium-phosphate buffer (pH 7.4) was added to it; and for the case in the presence of a metabolic activation system (+S9mix), 500 μl of S9mix was added to it.
Next, 100 μl of the test strain suspension that had been cultivated with shaking at 37° C. for 8 hours was added to it, and preincubated in a shaking thermostat at 37° C. for 20 minutes. After shaken, 2 ml of top agar was added to it, and the contents were mixed.
Next, the mixture was poured onto a minimal glucose agar plate medium (plate) and spread uniformly thereon, then the top agar was solidified, and the plate was transferred into a thermostat and incubated at 37° C. for 48 hours.
Then, the number of the colonies grown through reverse mutation was counted.
For counting it, […]. After area correction and miss-counting correction, the number of the colonies was computed. When the colony analyzer could not be used owing to the deposition of the test compound or the cell growth inhibition, then the number of the colonies was counted with the naked eye.
In case where the number of the colonies through reverse mutation increased two times or more that of the negative control and where the dose dependency or the reproducibility of the increase was admitted, then the tested sample was decided as positive. When the sample was is decided as positive, then the relative activity that indicates the relative comparative value of the intensity of the mutagenicity of the test compound was obtained according to the following formula: Relative Activity={(number of colonies per plate having the concentration)−(number of colonies per negative control plate)}/the value of concentration (mg/plate).

[7] = molecular target: T2, Amyloid β protein 1-40 (Homo sapiens, UniProt P05067); assay: Fluorescence Congo Red Method; assay type: binding; conditions: 1 h, compound 10 μM, amyloid β protein 5 μM
T2 construct: Amyloid β protein 1-40 (bought from Peptide Laboratory); purchased Peptide Laboratory
T2 sequence (P05067 672-711): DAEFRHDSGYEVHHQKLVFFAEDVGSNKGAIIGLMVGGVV
Method: Next described is a screening method for the compounds of the invention. Some of the compounds of the invention could not be screened according to a Thioflavin T method, since their fluorescence wavelength overlaps with that of Thioflavin T. For such compounds, the following novel screening method was introduced. (1) Amyloid β protein 1-40 (bought from Peptide Laboratory) was dissolved in a phosphate buffer (pH 7.4) and left at 37° C. for 4 days. (2) 50 μl of Congo red dissolved in the buffer was applied to a 96-well microplate (final concentration, 0.1, 0.3, 1 μM). (3) 100 μl of amyloid β protein was added to it (final concentration 5 μM), and left as such for 30 minutes. (4) 100 μl of a test compound dissolved in the buffer was added to it (final concentration, 10 μM, and left as such for 60 minutes. (5) Using a fluorescence microplate reader (Spectra Max 190 by Molecular Device), the sample was analyzed at the optimum exciting wavelength and the test wavelength that had been previously determined. (6) The fluorescence intensity in the presence of the test compound, amyloid β protein and Congo red is represented by A; that in the presence of the test compound and Congo red is by B; that in the presence of the test compound and amyloid β protein is by C; and that in the presence of only the test compound is by D. The β structure recognition of the test compound is computed according to the following formula: β structure recognition (%) of test compound={(A−B)/(C−D)}×100. (7) It may be said that the test compound having a higher β structure recognition percentage may have higher binding specificity to amyloid β protein.

[8] = Congo red 0.1 μM, read-out: Binding Percentage of Compound in the presence of 0.1 μM CR
[9] = Congo red 0.3 μM, read-out: Binding Percentage of Compound in the presence of 0.3 μM CR
[10] = Congo red 1 μM, read-out: Binding Percentage of Compound in the presence of 1 μM CR

Row | Structure (SMILES) | Maximum Permissible Dose (mg/kg, intravenous administration) [4] | Brain Permeability: Brain [5] | Brain Permeability: Plasma [5] | Relative Activity in the presence of S9Mix [6] | Relative Activity in the absence of S9Mix [6] | activity at 10 µM [7, 8] | activity at 10 µM [7, 9] | activity at 10 µM [7, 10] | also measured
1 | CC(=C(C#N)C#N)c1ccc2cc(N(C)CCF)ccc2c1 [FDDNP] |  |  |  |  |  |  |  |  | Relative Activity in the absence of S9Mix [1]: 3,564,960; Relative Activity in the presence of S9Mix [1]: minus
2 | CN(C)c1ccc(-c2cn3cc(I)ccc3n2)cc1 [IMPY] |  |  |  |  |  |  |  |  | Relative activity (mutagenicity) ([1]; in the presence of S9mix, literature compounds): extremely high; Relative Activity in the presence of S9Mix ([1]; reverse mutation test, +S9mix, data from PCT/JP03/07183 (WO03/106439)): minus; Relative Activity in the absence of S9Mix ([1]; reverse mutation test, -S9mix, data from PCT/JP03/07183 (WO03/106439)): 3,326,100
3 | CN1C=CC(=C/C=C2\C=Nc3ccccc32)C=C1 [THK-185, 3-[2-(1-methyl-1H-pyridin-4-ylidene)-ethylidene]-3H-indole] |  |  |  |  |  |  |  |  | Binding to (staining of) amyloid β protein in the brain section of an Alzheimer disease patient ([2]; 100 μM solution in 50% ethanol, 10 minutes, paraffin brain section): bound to the amyloid β protein; Specificity to amyloid β ([2]; statement in the description of formulae (II) to (VI)): high specificity to amyloid β; Binding to (staining of) neurofibrillary tangle in the brain section of an Alzheimer disease patient [3]: bound to the amyloid β protein and the neurofibrillary tangle
4 | CN1CCN(c2ncc(/C=C/c3nc4ccc(OC(CO)CF)cc4o3)s2)CC1 (centres unmarked) [THK-707, (E)-6-[(1-fluoromethyl-2-hydroxy)ethoxy]-2-[2-[2-(4-methylpiperazin-1-yl)thiazol-5-yl]ethenyl]benzoxazole] | ≧10 mg/kg | 4.4 % ID/g or ml | 0.58 % ID/g or ml | minus | 264 | 66.8% | 36.4% | 29.7% | Relative activity (mutagenicity) ([6]; in the presence of S9mix): weak
5 | OCC(CF)Oc1ccc2nc(/C=C/c3cnc(N4CCCCC4)s3)oc2c1 (centres unmarked) [THK-713] | ≧10 mg/kg | 5.9 % ID/g or ml | 3.29 % ID/g or ml | minus | minus | 58.2% | 21.2% | 3% | Relative activity (mutagenicity) ([6]; irrespective of the absence or presence of S9mix): minus

Source: patent US7910579B2, “Benzoxazole derivatives” (Tohoku University, priority 2006, dated 2011)
